According to patent US8119637B2, “Substituted pyrrolo[2,3-b]pyrazines and methods for kinase modulation, and indications therefor” (Plexxikon Inc., priority 2008, dated 2012):

Tests used:
Type in all cases: biochemical
Details in all cases: method of U.S. Ser. No. 11/473,347 or similar
[1] = target: Kit (Homo sapiens, UniProt P10721); assay: Kit kinase activity assay
Text: (§1) Assays for the activity of kinases, including, but not limited to, Fms, Kit, B-Raf, B-Raf V600E, B-Raf V600E/T5291 and c-Raf-1 are known in the art, for example as described in US Patent Publication Number US20070032519 and U.S. patent application Ser. No. 11/473,347 (see also, PCT publication WO2007002433), the disclosures of which are hereby incorporated by reference with respect to such assays.
(§2) Compounds P-0001 was screened by at least one of the methods described in U.S. patent application Ser. No. 11/473,347, or by similar methods.

[2] = target: Btk (Homo sapiens, UniProt Q06187); assay: Btk kinase activity assay
Sequence of Btk (Q06187 whole entry): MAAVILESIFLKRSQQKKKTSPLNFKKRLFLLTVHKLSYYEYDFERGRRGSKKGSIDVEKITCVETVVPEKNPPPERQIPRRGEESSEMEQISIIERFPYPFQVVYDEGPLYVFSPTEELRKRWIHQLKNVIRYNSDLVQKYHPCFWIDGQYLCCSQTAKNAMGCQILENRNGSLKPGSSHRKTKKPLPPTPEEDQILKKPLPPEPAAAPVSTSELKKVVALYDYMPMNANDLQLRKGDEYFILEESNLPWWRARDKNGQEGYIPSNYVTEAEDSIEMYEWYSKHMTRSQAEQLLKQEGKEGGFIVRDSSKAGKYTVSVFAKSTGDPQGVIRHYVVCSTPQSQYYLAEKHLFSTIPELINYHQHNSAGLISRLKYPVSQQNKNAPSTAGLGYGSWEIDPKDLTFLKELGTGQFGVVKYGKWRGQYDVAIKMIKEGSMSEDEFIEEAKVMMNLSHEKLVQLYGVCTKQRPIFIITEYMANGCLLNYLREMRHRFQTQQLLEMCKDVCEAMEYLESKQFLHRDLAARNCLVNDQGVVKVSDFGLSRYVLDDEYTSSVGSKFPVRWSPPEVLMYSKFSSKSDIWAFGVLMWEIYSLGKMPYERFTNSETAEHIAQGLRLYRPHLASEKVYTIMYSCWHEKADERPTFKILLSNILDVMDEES
Text: as §1, §2

[3] = target: Fms (Homo sapiens, UniProt P07333); assay: Fms kinase activity assay
Sequence of Fms (P07333 20-972): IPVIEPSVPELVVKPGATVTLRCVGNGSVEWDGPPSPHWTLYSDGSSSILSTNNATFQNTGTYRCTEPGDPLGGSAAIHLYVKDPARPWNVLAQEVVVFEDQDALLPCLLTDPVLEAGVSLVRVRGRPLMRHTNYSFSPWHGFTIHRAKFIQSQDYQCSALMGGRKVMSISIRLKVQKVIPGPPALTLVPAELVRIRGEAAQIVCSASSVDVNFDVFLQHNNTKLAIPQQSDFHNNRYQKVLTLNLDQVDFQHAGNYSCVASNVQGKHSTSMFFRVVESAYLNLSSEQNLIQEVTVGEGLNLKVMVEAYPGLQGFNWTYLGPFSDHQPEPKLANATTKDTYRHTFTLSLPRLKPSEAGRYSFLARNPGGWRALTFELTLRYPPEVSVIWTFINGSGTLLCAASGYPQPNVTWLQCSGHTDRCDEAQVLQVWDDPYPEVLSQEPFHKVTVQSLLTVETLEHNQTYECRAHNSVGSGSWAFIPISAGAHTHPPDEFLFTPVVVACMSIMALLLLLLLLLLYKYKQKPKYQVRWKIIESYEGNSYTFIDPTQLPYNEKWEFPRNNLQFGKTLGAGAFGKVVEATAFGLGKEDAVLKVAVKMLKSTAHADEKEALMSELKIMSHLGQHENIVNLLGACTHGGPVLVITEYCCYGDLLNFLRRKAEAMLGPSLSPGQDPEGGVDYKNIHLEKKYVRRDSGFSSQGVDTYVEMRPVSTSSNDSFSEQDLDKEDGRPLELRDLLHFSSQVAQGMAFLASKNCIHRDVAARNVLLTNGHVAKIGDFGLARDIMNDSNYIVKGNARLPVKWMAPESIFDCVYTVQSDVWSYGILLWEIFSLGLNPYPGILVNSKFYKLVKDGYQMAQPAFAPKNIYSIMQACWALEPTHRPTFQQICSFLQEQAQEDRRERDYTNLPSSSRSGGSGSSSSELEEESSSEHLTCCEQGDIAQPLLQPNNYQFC
Text: as §1, §2

[4] = target: Kdr (Homo sapiens, UniProt P35968); assay: Kdr kinase activity assay
Sequence of Kdr (P35968 20-1356): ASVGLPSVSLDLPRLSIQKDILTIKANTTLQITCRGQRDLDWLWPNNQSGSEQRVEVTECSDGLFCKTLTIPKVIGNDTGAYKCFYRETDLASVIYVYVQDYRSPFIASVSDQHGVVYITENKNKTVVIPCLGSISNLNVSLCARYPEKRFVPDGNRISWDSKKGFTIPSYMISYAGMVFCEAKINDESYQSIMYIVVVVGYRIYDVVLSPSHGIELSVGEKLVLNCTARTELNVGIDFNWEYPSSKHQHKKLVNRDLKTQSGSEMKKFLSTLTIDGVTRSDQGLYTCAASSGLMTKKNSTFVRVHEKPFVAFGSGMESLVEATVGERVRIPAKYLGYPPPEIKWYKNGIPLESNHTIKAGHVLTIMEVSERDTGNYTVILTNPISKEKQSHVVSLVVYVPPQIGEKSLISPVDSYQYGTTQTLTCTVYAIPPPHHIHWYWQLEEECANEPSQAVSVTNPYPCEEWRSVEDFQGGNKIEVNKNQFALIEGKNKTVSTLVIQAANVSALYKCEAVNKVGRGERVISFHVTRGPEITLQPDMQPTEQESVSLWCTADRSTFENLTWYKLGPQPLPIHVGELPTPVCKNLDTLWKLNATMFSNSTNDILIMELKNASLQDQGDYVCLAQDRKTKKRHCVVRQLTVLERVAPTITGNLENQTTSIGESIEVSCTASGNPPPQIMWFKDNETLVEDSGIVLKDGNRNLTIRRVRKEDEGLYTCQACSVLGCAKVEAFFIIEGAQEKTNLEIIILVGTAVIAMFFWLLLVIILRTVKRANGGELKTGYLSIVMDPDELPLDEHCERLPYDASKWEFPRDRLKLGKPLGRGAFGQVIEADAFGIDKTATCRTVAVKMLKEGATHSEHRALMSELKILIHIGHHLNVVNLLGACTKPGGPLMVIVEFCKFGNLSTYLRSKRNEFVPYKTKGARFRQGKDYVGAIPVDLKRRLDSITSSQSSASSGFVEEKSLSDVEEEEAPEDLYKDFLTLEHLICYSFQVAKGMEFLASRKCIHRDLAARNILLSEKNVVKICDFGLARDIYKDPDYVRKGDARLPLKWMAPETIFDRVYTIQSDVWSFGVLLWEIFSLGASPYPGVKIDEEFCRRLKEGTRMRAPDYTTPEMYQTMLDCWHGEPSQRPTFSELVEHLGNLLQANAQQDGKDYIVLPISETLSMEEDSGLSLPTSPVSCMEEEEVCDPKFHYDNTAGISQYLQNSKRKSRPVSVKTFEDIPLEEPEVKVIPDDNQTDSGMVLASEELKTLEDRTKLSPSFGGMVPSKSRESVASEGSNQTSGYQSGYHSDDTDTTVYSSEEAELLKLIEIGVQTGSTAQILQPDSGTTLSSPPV
Text: as §1, §2

Measured: IC50

Sequence of Kit (P10721 26-976): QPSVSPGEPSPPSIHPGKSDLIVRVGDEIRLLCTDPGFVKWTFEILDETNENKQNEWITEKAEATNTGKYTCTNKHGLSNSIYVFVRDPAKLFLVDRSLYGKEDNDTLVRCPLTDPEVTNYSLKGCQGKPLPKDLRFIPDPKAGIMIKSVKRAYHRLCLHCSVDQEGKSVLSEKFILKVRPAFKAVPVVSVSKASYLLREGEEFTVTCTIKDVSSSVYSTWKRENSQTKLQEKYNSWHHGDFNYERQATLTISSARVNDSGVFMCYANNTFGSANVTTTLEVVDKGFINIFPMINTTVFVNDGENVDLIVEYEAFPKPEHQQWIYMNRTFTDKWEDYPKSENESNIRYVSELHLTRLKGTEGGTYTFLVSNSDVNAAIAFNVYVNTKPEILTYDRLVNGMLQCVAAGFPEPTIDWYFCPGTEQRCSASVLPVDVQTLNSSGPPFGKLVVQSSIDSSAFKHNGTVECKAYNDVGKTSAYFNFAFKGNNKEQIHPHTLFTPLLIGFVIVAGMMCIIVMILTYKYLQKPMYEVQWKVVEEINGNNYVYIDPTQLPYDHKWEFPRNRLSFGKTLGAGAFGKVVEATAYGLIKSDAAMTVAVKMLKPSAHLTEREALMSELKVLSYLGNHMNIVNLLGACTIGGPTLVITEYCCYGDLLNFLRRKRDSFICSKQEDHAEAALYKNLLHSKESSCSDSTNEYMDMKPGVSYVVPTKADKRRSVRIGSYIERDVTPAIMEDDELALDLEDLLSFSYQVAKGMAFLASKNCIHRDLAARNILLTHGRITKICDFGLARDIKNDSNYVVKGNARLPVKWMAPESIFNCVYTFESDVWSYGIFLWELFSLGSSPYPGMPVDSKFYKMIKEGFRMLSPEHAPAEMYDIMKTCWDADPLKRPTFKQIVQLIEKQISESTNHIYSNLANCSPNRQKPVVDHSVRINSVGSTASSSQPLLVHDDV

COc1ccc(CNc2ccc(Cc3c[nH]c4nccnc34)cn2)cn1 [Compound P-0001, (6-methoxy-pyridin-3-ylmethyl)-[5-(5H-pyrrolo[2,3-b]pyrazin-7-ylmethyl)-pyridin-2-yl]-amine]
< 10 µM: all assays above
